Data on 30 compounds can be found in patent US9593110B2, “Neprilysin inhibitors” (Theravence Biopharma R&D IP, LLC, priority 2014, dated 2017).

The assay addresses human NEP (Homo sapiens (Human), UniProt P08473). Description: In vitro enzyme inhibition assay at human NEP. As to conditions: recombinant human NEP, fluorogenic peptide substrate, 37° C.; for Ki: pKi.

Some results are limits rather than exact numbers.

human NEP, sequence (P08473 52-750): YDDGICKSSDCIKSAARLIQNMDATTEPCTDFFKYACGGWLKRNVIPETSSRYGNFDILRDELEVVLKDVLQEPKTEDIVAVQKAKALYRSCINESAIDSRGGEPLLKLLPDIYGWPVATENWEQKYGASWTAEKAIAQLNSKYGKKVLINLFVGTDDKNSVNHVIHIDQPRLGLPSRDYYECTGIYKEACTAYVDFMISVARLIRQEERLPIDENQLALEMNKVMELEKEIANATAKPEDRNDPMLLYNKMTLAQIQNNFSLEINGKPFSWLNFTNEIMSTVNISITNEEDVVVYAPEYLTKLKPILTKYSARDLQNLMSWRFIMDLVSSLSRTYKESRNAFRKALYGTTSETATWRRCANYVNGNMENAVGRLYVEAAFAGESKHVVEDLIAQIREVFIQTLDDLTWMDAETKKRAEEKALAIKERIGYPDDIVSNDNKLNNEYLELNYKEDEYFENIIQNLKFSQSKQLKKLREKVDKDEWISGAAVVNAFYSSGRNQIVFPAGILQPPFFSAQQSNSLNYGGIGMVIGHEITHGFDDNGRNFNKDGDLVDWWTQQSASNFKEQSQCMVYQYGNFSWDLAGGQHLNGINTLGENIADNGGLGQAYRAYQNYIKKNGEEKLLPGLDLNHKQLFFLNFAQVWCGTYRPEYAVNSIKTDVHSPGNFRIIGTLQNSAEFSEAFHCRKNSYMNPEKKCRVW

On to `CCOC[C@H](C[C@@H](Cc1ccc(-c2cc(Cl)ccc2F)cc1)NC(=O)c1ncco1)C(=O)O` [Example 7-6, (2S,4S)-5-(5′-Chloro-2′-fluorobiphenyl-4-yl)-2-ethoxymethyl-4-[(oxazole-2-carbonyl)amino]pentanoic acid], for which the pKi entry is recorded as “≧9.0”.
As to `COCCCN[C@H](C[C@@H](Cc1ccc(-c2cc(Cl)ccc2F)cc1)NC(=O)c1c[nH]nn1)C(=O)O` [Example 97a], the Ki was no more than 1 nM.
In the case of `NC(=O)C1CN(C[C@H](C[C@@H](Cc2ccc(-c3cc(Cl)ccc3F)cc2)NC(=O)c2cnn[nH]2)C(=O)O)C1` [Example 96b, (2S,4S)-2-(3-Carbamoylazetidin-1-ylmethyl)-5-(5′-chloro-2′-fluorobiphenyl-4-yl)-4-[(3H-[1,2,3]triazole-4-carbonyl)amino]pentanoic Acid], the pKi entry was “≧9.0”.
Regarding `O=C(N[C@H](Cc1ccc(-c2cc(Cl)ccc2F)cc1)C[C@@H](CN1CC(CCO)C1)C(=O)O)c1c[nH]nn1` [Example 105, (2S,4S)-5-(5′-Chloro-2′-fluorobiphenyl-4-yl)-2-[3-(2-hydroxyethyl)azetidin-1-ylmethyl]-4-[(1H-[1,2,3]triazole-4-carbonyl)amino]pentanoic Acid], the inhibitory constant (Ki) was no more than 1 nM.
Same read-out and setting: as for `CCOC[C@H](C[C@@H](Cc1ccc(-c2cccc(Cl)c2)cc1)NC(=O)c1cc(O)no1)C(=O)O` [Example 8, (2S,4S)-5-(3′-Chlorobiphenyl-4-yl)-2-ethoxymethyl-4-[(3-hydroxyisoxazole-5-carbonyl)amino]pentanoic Acid], the figure is no more than 1 nM; as for `COC1CN(C[C@H](C[C@@H](Cc2ccc(-c3cc(Cl)ccc3F)cc2)NC(=O)c2c[nH]nn2)C(=O)O)C1` [Example 102b, (2S,4S)-5-(5′-Chloro-2′-fluorobiphenyl-4-yl)-2-(3-methoxyazetidin-1-ylmethyl)-4-[(1H-[1,2,3]triazole-4-carbonyl)amino]pentanoic Acid], no more than 1 nM; as for `N#CC[C@H](C[C@@H](Cc1ccc(-c2cc(Cl)ccc2F)cc1)NC(=O)c1cnsc1)C(=O)O` [Example 52-3, (2S,4S)-5-(5′-Chloro-2′-fluorobiphenyl-4-yl)-2-cyanomethyl-4-[(isothiazole-4-carbonyl)amino]pentanoic acid], 1.26 to 3.16 nM.
Consider `CNCCCC(=O)N[C@H](C[C@@H](Cc1ccc(-c2cc(Cl)ccc2F)cc1)NC(=O)c1c[nH]nn1)C(=O)O` [Example 71, (2R,4R)-5-(5′-Chloro-2′-fluorobiphenyl-4-yl)-2-(4-methylamino-butyrylamino)-4-[(1H-[1,2,3]triazole-4-carbonyl)amino]pentanoic Acid], for which the pKi entry is “≧9.0”.
As to `O=C(N[C@H](Cc1ccc(-c2cc(Cl)ccc2F)cc1)C[C@@H](CNCCF)C(=O)O)c1cnn[nH]1` [Example 81, (2S,4S)-5-(5′-Chloro-2′-fluorobiphenyl-4-yl)-2-[(2-fluoroethylamino)methyl]-4-[(3H-[1,2,3]triazole-4-carbonyl)amino]pentanoic Acid], the inhibition constant Ki fell in the range of 3.16 to 10 nM.
For the compound `N[C@H](C[C@@H](Cc1ccc(-c2cc(Cl)ccc2F)cc1)NC(=O)c1ccns1)C(=O)O` [Example 16-8, (2R,4R)-2-Amino-5-(5′-chloro-2′-fluorobiphenyl-4-yl)-4-[(isothiazole-5-carbonyl)amino]-pentanoic acid], the Ki fell in the range of 3.16 to 10 nM.
On the same count and under the same terms, then `CN(CCO)C[C@H](C[C@@H](Cc1ccc(-c2cc(Cl)ccc2F)cc1)NC(=O)c1c[nH]nn1)C(=O)O` [Example 106, (2S,4S)-5-(5′-Chloro-2′-fluorobiphenyl-4-yl)-2-{[(2-hydroxyethyl)-methylamino]methyl}-4-[(1H-[1,2,3]triazole-4-carbonyl)amino]pentanoic Acid], with 1.26 to 3.16 nM; and `Cc1cc(C(=O)NC(Cc2ccc(-c3cc(Cl)ccc3F)cc2)C[C@@H](CC#N)C(=O)O)sn1` (single isomer, unassigned) [Example 52-2], with 3.16 to 10 nM.
With `CC(=O)NC[C@H](C[C@@H](Cc1ccc(-c2cc(Cl)ccc2F)cc1)NC(=O)c1c[nH]nn1)C(=O)O` [Example 28, (2S,4S)-2-(Acetylaminomethyl)-5-(5′-chloro-2′-fluoro-biphenyl-4-yl)-4-[(1H-[1,2,3]triazole-4-carbonyl)amino]pentanoic Acid], the pKi entry is on record as “≧9.0”.
Consider `COC(=O)N[C@H](C[C@@H](Cc1ccc(-c2cc(Cl)ccc2F)cc1)NC(=O)c1noc(=O)[nH]1)C(=O)O` [Example 30-9, (2R,4R)-5-(5′-Chloro-2′-fluorobiphenyl-4-yl)-2-methoxycarbonylamino-4-[(5-oxo-4,5-dihydro-[1,2,4]oxadiazole-3-carbonyl)amino]pentanoic acid], for which the pKi entry is “≧9.0”.
With `N[C@H](C[C@@H](Cc1ccc(-c2cc(Cl)ccc2F)cc1)NC(=O)c1coc(=O)[nH]1)C(=O)O` [Example 16-31, (2R,4R)-2-Amino-5-(5′-chloro-2′-fluorobiphenyl-4-yl)-4-[(2-oxo-2,3-dihydro-oxazole-4-carbonyl)amino]pentanoic acid], the pKi result is recorded as “≧9.0”.
With `NCCCC(=O)N[C@H](C[C@@H](Cc1ccc(-c2cc(Cl)ccc2F)cc1)NC(=O)c1cnn[nH]1)C(=O)O` [Example 40, (2R,4R)-2-(4-Aminobutyrylamino)-5-(5′-chloro-2′-fluorobiphenyl-4-yl)-4-[(3H-[1,2,3]triazole-4-carbonyl)amino]pentanoic Acid], the Ki was no more than 1 nM.
On the same count and under the same terms, then `NC[C@H](C[C@@H](Cc1ccc(-c2ccccc2)cc1)NC(=O)c1c[nH]nn1)C(=O)O` [Example 22, (2S,4S)-2-Aminomethyl-5-biphenyl-4-yl-4-[(1H-[1,2,3]triazole-4-carbonyl)amino]pentanoic Acid], with 1.26 to 3.16 nM.
Consider `CCOC[C@H](C[C@@H](Cc1ccc(-c2cc(Cl)ccc2F)cc1)NC(=O)c1noc(=O)[nH]1)C(=O)O` [Example 7-10, (2S,4S)-5-(5′-Chloro-2′-fluorobiphenyl-4-yl)-2-ethoxymethyl-4-[(5-oxo-4,5-dihydro-[1,2,4]oxadiazole-3-carbonyl)amino]pentanoic acid], for which the pKi entry is on record as “≧9.0”.
With `COC(=O)N[C@H](C[C@@H](Cc1ccc(-c2cc(Cl)ccc2F)cc1)NC(=O)c1c[nH]c(=O)o1)C(=O)O` [Example 30-10, (2R,4R)-5-(5′-Chloro-2′-fluorobiphenyl-4-yl)-2-methoxycarbonylamino-4-[(2-oxo-2,3-dihydro-oxazole-5-carbonyl)amino]pentanoic acid], the pKi result was “≧9.0”.
The same measure, in the same setting: as for `COC[C@H](C[C@@H](Cc1ccc(-c2cccc(Cl)c2)cc1)NC(=O)c1noc(=O)[nH]1)C(=O)O` [Example 4-3, (2S,4S)-5-(3′-Chlorobiphenyl-4-yl)-2-methoxymethyl-4-[(5-oxo-4,5-dihydro-[1,2,4]oxadiazole-3-carbonyl)amino]pentanoic acid], the entry is “≧9.0”.
In the case of `N[C@H](C[C@@H](Cc1ccc(-c2cc(Cl)ccc2F)cc1)NC(=O)c1c[nH]nn1)C(=O)O` [Example 13, (2R,4R)-2-Amino-5-(5′-chloro-2′-fluorobiphenyl-4-yl)-4-[(1H-[1,2,3]triazole-4-carbonyl)amino]pentanoic Acid], the Ki is no more than 1 nM.
For the compound `COC[C@H](C[C@@H](Cc1ccc(-c2cc(Cl)ccc2F)cc1)NC(=O)c1cc(C(C)=O)n[nH]1)C(=O)O` [Example 2-4, (2S,4S)-4-[(5-Acetyl-2H-pyrazole-3-carbonyl)-amino]-5-(5′-chloro-2′-fluorobiphenyl-4-yl)-2-methoxymethylpentanoic acid], the pKi result is recorded as “≧9.0”.
Still for that read-out and setting: as for `NCC(=O)NC[C@H](C[C@@H](Cc1ccc(-c2cc(Cl)ccc2F)cc1)NC(=O)c1cnn[nH]1)C(=O)O` [Example 44-1, (2S,4S)-2-[(2-Aminoacetylamino)methyl]-5-(5′-chloro-2′-fluorobiphenyl-4-yl)-4-[(3H-[1,2,3]triazole-4-carbonyl)amino]pentanoic acid], the entry is “≧9.0”.
With `CC(C)c1coc(C(=O)N[C@H](Cc2ccc(-c3cc(Cl)ccc3F)cc2)C[C@@H](NC(=O)[C@H](C)N)C(=O)O)n1` [Example 36-1, (2R,4R)-2-((S)-2-Aminopropionylamino)-5-(5′-chloro-2′-fluorobiphenyl-4-yl)-4-[(4-isopropyloxazole-2-carbonyl)amino]pentanoic Acid], the inhibitory constant (Ki) is 1.26 to 3.16 nM.
Regarding `CCOC[C@H](C[C@@H](Cc1ccc(-c2cc(Cl)ccc2F)cc1)NC(=O)c1cc(CC)no1)C(=O)O` [Example 7-5, (2S,4S)-5-(5′-Chloro-2′-fluorobiphenyl-4-yl)-2-ethoxymethyl-4-[(3-ethylisoxazole-5-carbonyl)amino]pentanoic acid], the pKi entry is listed as “≧9.0”.
Still for that read-out and setting: as for `NCCC(=O)N[C@H](C[C@@H](Cc1ccc(-c2cc(Cl)ccc2F)cc1)NC(=O)c1cnn[nH]1)C(=O)O` [Example 41, (2R,4R)-2-(3-Aminopropionylamino)-5-(5′-chloro-2′-fluoro-biphenyl-4-yl)-4-[(3H-[1,2,3]triazole-4-carbonyl)amino]pentanoic Acid], the entry is “≧9.0”.
With `NCCCC(=O)NC[C@H](C[C@@H](Cc1ccc(-c2cc(Cl)ccc2F)cc1)NC(=O)c1cnn[nH]1)C(=O)O` [Example 68, (2S,4S)-2-[(4-Aminobutyrylamino)methyl]-5-(5′-chloro-2′-fluorobiphenyl-4-yl)-4-[(3H-[1,2,3]triazole-4-carbonyl)amino]pentanoic acid], the Ki was in the range of 3.16 to 10 nM.
Take `O=C(N[C@H](Cc1ccc(-c2cc(Cl)ccc2F)cc1)C[C@@H](CN1CCC1)C(=O)O)c1cnn[nH]1` [Example 84b, (2S,4S)-2-Azetidin-1-ylmethyl-5-(5′-chloro-2′-fluorobiphenyl-4-yl)-4-[(3H-[1,2,3]triazole-4-carbonyl)amino]pentanoic Acid]: the inhibition constant (Ki) is no more than 1 nM.
On the same count and under the same terms, then `NCC(=O)N[C@H](C[C@@H](Cc1ccc(-c2ccccc2F)cc1)NC(=O)c1c[nH]nn1)C(=O)O` [Example 32, (2R,4R)-2-(2-Aminoacetylamino)-5-(2′-fluorobiphenyl-4-yl)-4-[(1H-[1,2,3]triazole-4-carbonyl)amino]pentanoic Acid], with 3.16 to 10 nM.
For `CN(C)C(=O)c1cc(C(=O)N[C@H](Cc2ccc(-c3cc(Cl)ccc3F)cc2)C[C@@H](N)C(=O)O)[nH]n1` [Example 16-18, (2R,4R)-2-Amino-5-(5′-chloro-2′-fluorobiphenyl-4-yl)-4-[(5-dimethylcarbamoyl-2H-pyrazole-3-carbonyl)amino]pentanoic acid], the pKi entry is “≧9.0”.
